Key:
schizophrenic patients = conditions: cited from earlier work; for time to respond to antipsychotics, -141C Del allele carriers versus -141C Ins allele carriers: rs1799732 SNP; for time to respond to antipsychotics, -141C Del allele carriers versus -141C Ins allele carriers / improvement on treatment, C/C genotype versus non-C/C genotype: schizophrenic patients; for improvement on treatment, C/C genotype versus non-C/C genotype: rs6275 SNP
[1] = test system: patients with an acute exacerbation of schizophrenia; test: Phase III clinical trial of iloperidone, change from baseline in PANSS-T by DRD2/ANKK1 SNP genotype; assay type: in vivo, human; conditions: iloperidone 24 mg/d; for PANSS-T mean change: day 14, white patients; for mean change in PANSS-T: day 14, white subpopulation
Procedure: The clinical trial evaluated the efficacy of iloperidone in treating patients with diagnosed schizophrenia. The study, its results, and the inferences drawn therefrom are described below.
A four-week, randomized, double-blind, placebo- and ziprasidone-controlled, multicenter inpatient phase III clinical trial of iloperidone was conducted, including 409 individuals, to assess the efficacy of iloperidone, as measured by changes in the Positive and Negative Syndrome Scale Total (PANSS-T).
Patients, all diagnosed with an acute exacerbation of schizophrenia, were randomly assigned to one of three groups. A first group (n=218) received 24 mg/d (12 mg bid) of iloperidone, a second group (n=103) received 160 mg/d (80 mg bid) ziprasidone, and a third group (n=105) received a placebo. Efficacy was measured by a change from baseline in PANSS-T score.

CN(C)CCCN1c2ccccc2Sc2ccc(Cl)cc21 [chlorpromazine]
time to respond to antipsychotics, -141C Del allele carriers versus -141C Ins allele carriers (schizophrenic patients): significantly longer time to respond

O=C(CCCN1CCC(O)(c2ccc(Cl)cc2)CC1)c1ccc(F)cc1 [haloperidol]
improvement on treatment, C/C genotype versus non-C/C genotype (schizophrenic patients): greater improvement

COc1cc(C(C)=O)ccc1OCCCN1CCC(c2noc3cc(F)ccc23)CC1 [iloperidone, 1-[4-[3-[4-(6-flouro-1,2-benzisoxazol-3-yl)-1-piperidinyl]propoxy]-3-methoxyphenyl]ethanone]
PANSS-T mean change ([1]; rs2283265 G/T genotype): −2.4 (±3.0) | PANSS-T mean change ([1]; rs2283265 non-G/T genotype): −11.8 (±2.0) | mean change in PANSS-T ([1]; rs1800497 (Taq1A) A1/A2 patients): −2.1 (±2.7) | mean change in PANSS-T ([1]; rs1800497 (Taq1A) non-A1/A2 patients): −12.7 (±2.1)

Cc1nc2n(c(=O)c1CCN1CCC(c3noc4cc(F)ccc34)CC1)CCCC2 [risperidol]
improvement on treatment, C/C genotype versus non-C/C genotype (schizophrenic patients): greater improvement

Cc1nc2n(c(=O)c1CCN1CCC(c3noc4cc(F)ccc34)CC1)CCCC2 [risperidone]
time to respond to antipsychotics, -141C Del allele carriers versus -141C Ins allele carriers (schizophrenic patients): significantly longer time to respond | response to treatment, -241A allele carriers versus -241G allele carriers (schizophrenic patients; rs1799978 SNP, some patients): greater response

Source: patent publication US9408839B2, “Antipsychotic treatment based on DRD2 or ANKK1 SNP genotype” (Vanda Pharmaceuticals, Inc., priority 2009, dated 2016)
